Marks after values point to notes of the source that are not given here.
Tests used:
[1] = Tissue concentrations of capecitabine and its metabolites 2 h after oral capecitabine in CES2-modified mice; format: in vivo, mouse; conditions: oral capecitabine 500 mg/kg
Protocol: (§1) For capecitabine 2-h experiments, 6–7 female mice received oral capecitabine (500 mg/kg, 10 μL/g), and tail vein blood samples were collected at 0.125, 0.25, 0.5 and 1 h after drug administration. For the vinorelbine 4-h experiment, 6-7 male mice received vinorelbine intravenously (10 mg/kg, 5 μL/g) or orally (10 mg/kg, 10 μL/g) using a blunt-ended needle. Tail vein blood samples were collected at 0.125, 0.25, 0.5, 1 and 2 h after drug administration. […] At the last time point in each experiment (2 or 4 h), mice were anesthetized with 5% isoflurane and blood was collected by cardiac puncture. […] Plasma was isolated from the blood by centrifugation at 9000 × g for 6 min at 4 °C, and the plasma fraction was collected and stored at −30 °C until analysis.
(§2) Concentrations of capecitabine (and its metabolites) and vinorelbine (and its metabolite) in mouse plasma samples and organ homogenates were determined using two independent validated high-performance liquid chromatography-tandem mass spectrometry assays.
(§3) Pharmacokinetic parameters were calculated by non-compartmental methods using the PK solver software. […] Differences were considered statistically significant when P < 0.05. All data are presented as mean ± SD.

[2] = Plasma pharmacokinetics of capecitabine and its metabolites after oral capecitabine in CES2-modified mice; format: in vivo, mouse; conditions: oral capecitabine 500 mg/kg, plasma
Protocol: as §1, §2, §3

C[C@H]1O[C@@H](n2cc(F)c(=O)[nH]c2=O)[C@H](O)[C@@H]1O [5’-DFUR]
CSI (small intestine tissue concentration) ([1]; female Ces2^–/– mice): 5099 ± 1783 ng/g | CSIC (small intestine contents concentration) ([1]; female Ces2^–/– mice): 3905 ± 2357 ng/g | Ccolon (colon concentration) ([1]; female Ces2^–/– mice): 4754 ± 3040 ng/g | Cliver (liver concentration) ([1]; female Ces2^–/– mice): 3447 ± 1643 ng/g | Colon concentration ratio (metabolite/capecitabine) ([1]; female Ces2^–/– mice): 0.34 ± 0.06 | Liver concentration ratio (metabolite/capecitabine) ([1]; female Ces2^–/– mice): 0.21 ± 0.09 | Small intestine concentration ratio (metabolite/capecitabine) ([1]; female Ces2^–/– mice): 0.32 ± 0.13 | Small intestine contents concentration ratio (metabolite/capecitabine) ([1]; female Ces2^–/– mice): 0.036 ± 0.016 | CSI (small intestine tissue concentration) ([1]; female Ces2^–/–A mice): 4632 ± 1545 ng/g | CSIC (small intestine contents concentration) ([1]; female Ces2^–/–A mice): 2689 ± 1092 ng/g | Ccolon (colon concentration) ([1]; female Ces2^–/–A mice): 3692 ± 793 ng/g | Cliver (liver concentration) ([1]; female Ces2^–/–A mice): 2628 ± 793 ng/g | Colon concentration ratio (metabolite/capecitabine) ([1]; female Ces2^–/–A mice): 0.42 ± 0.06 | Liver concentration ratio (metabolite/capecitabine) ([1]; female Ces2^–/–A mice): 0.66 ± 0.37 | Small intestine concentration ratio (metabolite/capecitabine) ([1]; female Ces2^–/–A mice): 0.33 ± 0.12 | Small intestine contents concentration ratio (metabolite/capecitabine) ([1]; female Ces2^–/–A mice): 0.035 ± 0.025 | CSI (small intestine tissue concentration) ([1]; female Ces2^–/–V mice): 3194 ± 1571 ng/g | CSIC (small intestine contents concentration) ([1]; female Ces2^–/–V mice): 2248 ± 905 ng/g | Ccolon (colon concentration) ([1]; female Ces2^–/–V mice): 5426 ± 27021.6 ng/g | Cliver (liver concentration) ([1]; female Ces2^–/–V mice): 2635 ± 1118 ng/g | Colon concentration ratio (metabolite/capecitabine) ([1]; female Ces2^–/–V mice): 1.2 ± 0.5^###^^^ | Liver concentration ratio (metabolite/capecitabine) ([1]; female Ces2^–/–V mice): 0.44 ± 0.12 | Small intestine concentration ratio (metabolite/capecitabine) ([1]; female Ces2^–/–V mice): 1.50 ± 0.56^###^^^ | Small intestine contents concentration ratio (metabolite/capecitabine) ([1]; female Ces2^–/–V mice): 0.060 ± 0.024 | CSI (small intestine tissue concentration) ([1]; female wild-type mice): 2119 ± 460 ng/g | CSIC (small intestine contents concentration) ([1]; female wild-type mice): 1759 ± 941 ng/g | Ccolon (colon concentration) ([1]; female wild-type mice): 2694 ± 755 ng/g | Cliver (liver concentration) ([1]; female wild-type mice): 1750 ± 637 ng/g | Colon concentration ratio (metabolite/capecitabine) ([1]; female wild-type mice): 1.2 ± 0.3 | Liver concentration ratio (metabolite/capecitabine) ([1]; female wild-type mice): 1.60 ± 0.96 | Small intestine concentration ratio (metabolite/capecitabine) ([1]; female wild-type mice): 1.50 ± 0.62 | Small intestine contents concentration ratio (metabolite/capecitabine) ([1]; female wild-type mice): 0.077 ± 0.032 | AUC0-2h ([2]; female Ces2^–/– mice): 30434 ± 12950 ng·h/mL | AUC0-2h ratio (metabolite/capecitabine) ([2]; female Ces2^–/– mice): 1.0 ± 0.9 | Cmax ([2]; female Ces2^–/– mice): 22886 ± 11936 ng/mL | Tmax ([2]; female Ces2^–/– mice): 38.4 ± 14.4 min | AUC0-2h ([2]; female Ces2^–/–A mice): 29452 ± 10370 ng·h/mL | AUC0-2h ratio (metabolite/capecitabine) ([2]; female Ces2^–/–A mice): 1.1 ± 0.3 | Cmax ([2]; female Ces2^–/–A mice): 21100 ± 8366 ng/mL | Tmax ([2]; female Ces2^–/–A mice): 34.8 ± 12 min | AUC0-2h ([2]; female Ces2^–/–V mice): 34477 ± 13143 ng·h/mL | AUC0-2h ratio (metabolite/capecitabine) ([2]; female Ces2^–/–V mice): 2.1 ± 0.4***^###^^^ | Cmax ([2]; female Ces2^–/–V mice): 23871 ± 8673 ng/mL | Tmax ([2]; female Ces2^–/–V mice): 47.4 ± 16.2 min | AUC0-2h ([2]; female wild-type mice): 27337 ± 6291 ng·h/mL | AUC0-2h ratio (metabolite/capecitabine) ([2]; female wild-type mice): 4.7 ± 0.9 | Cmax ([2]; female wild-type mice): 21133 ± 7207 ng/mL | Tmax ([2]; female wild-type mice): 25.2 ± 7.8 min

Source: article PMC11845761, “Intestinal human carboxylesterase 2 (CES2) expression rescues drug metabolism and most metabolic syndrome phenotypes in global Ces2 cluster knockout mice” (Acta Pharmacologica Sinica, 2024)
